# Measured values from ChEMBL document CHEMBL1151298, “Plant anticancer agents XXIX. Cleomiscosin A from Simaba multiflora, Soulamea soulameoides, and Matayba arborescens” (1984).
# Assays:
# KB = assay: Cytotoxicity against human KB cells; type: functional; conditions: read-out: ED50 (the source's name)
# P388 = assay: Cytotoxicity against mouse P388 cells; type: functional; conditions: read-out: ED50 (the source's name)
smiles,measurement,setting,value
COc1cc([C@H]2Oc3c(OC)cc4ccc(=O)oc4c3O[C@@H]2CO)ccc1O [CLEOMISCOSIN A],EC50,KB,4.9 µg/mL
same,EC50,P388,3.8 µg/mL
